The record followed here is patent US8173693B2, “Benzenesulfonamide derivatives and pharmaceutical composition thereof” (Purzer Pharmaceutical Co., Ltd., priority 2010, dated 2012).

A word on the IC50: it is the point on the concentration scale where inhibition reaches its midpoint. A high value points to weaker potency in that assay. A word on the GI50: it is the concentration that inhibits growth by half.

Test [1] has as its system murine mammary carcinoma cell line 4T1-Luc cells. Briefly: 4T1-Luc cell survival, sulforhodamine B staining. It is filed as cell-based. Here is the method:
The murine mammary carcinoma cell line 4T1-Luc cells stably expressing the firefly luciferase gene under the selection of G418 was cultured in RPMI containing 10% fetal calf serum. The cells were maintained at 37° C. with 5% CO2 in air and subcultured twice weekly.
Each well of 96-well plates was seeded with 2,500 or 5,000 tumor cells, and the tumor cells were incubated in medium with 10% fetal bovine serum or without serum. The tumor cells were treated with 0, 0.01, 0.1, 1, or 10 μM of GM119 for 48 hr. Then, the tumor cells were fixed with 10% of trichloroacetic acid, washed with water, stained with sulforhodamine B. Then, the sample was washed with 1% of acetic acid, and Tris buffer was added into the sample. The absorption of the sample was determined at 515 nm with a Thermomax microplate reader, and repeated for 4 times. The absorption of the cells without drug treatment served as 100% survival, and the survival was calculated and represented by average±standard deviation %.
In general terms: The SRB assay estimates cell density from bound dye.

For test [2], the system named is Human breast carcinoma MCF-7 cells. The test is described as follows: SRB assay. Format: cell-based. The conditions noted are these: MCF7, 48 hr.
The test system of test [3] is HUVECs (human umbilical vein endothelial cells). Briefly: In vitro tube formation assay (capillary formation, VEGF-induced). It is filed as cell-based. Here is the method:
At day 1, HUVECs (human umbilical vein endothelial cells) cocultured with human fibroblasts were incubated in optimized medium and maintained in a humidified chamber at 37° C. containing 5% CO2. […] The cells were stimulated with VEGF (25 ng/mL) without or with GM119 (0.1, 1 or 10 μM). The media were replaced at days 3, 6, and 8. At day 11, the tube-like structures of the umbilical vein endothelial cells were observed by an anti-human CD31 antibody (Kurabo, Tokyo, Japan), and the area of the tube-like structures was analyzed.

In test [4] the test system is 4T1-Luc cells. The test is described as follows: In vivo evaluation, short-time treatment, mice implanted with 4T1-Luc cells. The method, then: GM119 (25 mg/kg) was applied to a mouse implanted with 4T1-Luc cells for a short time, and then Taxol (10 mg/kg) was applied thereto to observe the effect of GM119 on the 4T1-Luc cells.
(§1) A suspension of 4T1-Luc cells in matrigel was injected into the breast adipocyte to obtain mice implanted with luciferase tumor cells. […] When the size of the tumor cells was achieved to 200-500 mm^3, the mice were divided into 2 groups, and the number of the mice in each group is ≧5. Then, 0 or 25 mg/kg of GM119 was abdominal-injected into the mice for 5 days, wherein GM119 was dissolved in cremophor, and the volume of injection to each mouse is 50 μl. Then, 0 or 10 mg/kg of Taxol was abdominal-injected into the mice for every 2 days until death of the mice. The weight and the number of the mice were recorded every day to analyze the change on the weight and the survival time of the mice. After the drugs were applied to the mice, the size of the tumor cells in the mice was evaluated with bioluminescence every two days.

Test [5] concerns Human hepatoblastoma HepG2 cells. Briefly: SRB assay. Format: cell-based. The conditions noted are these: 48 hr. Here is the method:
(§2) Human Bladder Cancer TSGH cells, Human hepatoblastoma HepG2 cells, Human colorectal adenocarcinoma HT-29 cells, human nasopharyngeal carcinoma KB cells, Human gastric adenocarcinoma AGS cells, Human breast carcinoma MCF-7 cells, lung carcinoma A549 cells, and Human prostate carcinoma PC-3 cells were used in the preliminary cytotoxicity assays of the benzenesulfonamide derivatives of the present invention, and the inhibition activity against the tumor cells was evaluated.
(§3) All cell lines were maintained in RPMI 1640 supplied with 10% fetal bovine serum into 96-well microtiter plates and maintained in a humidified chamber at 37° C. containing 5% CO2. After 24 hr, cell lines in partial wells were fixed in situ with 10% trichloroacetic acid (TCA) to represent a measurement at the time of drug addition (T0). Then, cell lines in other wells were incubated with the benzenesulfonamide derivatives of the present invention for an additional 48 hr, and fixed in situ with 10% TCA to represent a measurement at the time of stopping reaction (Tx). After rinsing the plates with PBS and air-drying, 0.4% sulforhodamine B solution (weight per volume in 1% acetic acid) was added to each well and the plates were incubated for 10 min at room temperature. Unbound sulforhodamine B was removed with 1% acetic acid and the plates were air-dried. Cells bound with sulforhodamine B was subsequently solubilized with 10 mM Tris base (Trizma; Sigma). Cell proliferation was determined by measuring the optical density at 515 nm using a Thermomax microplate reader (Molecular Devices, Sunnyvale, Calif.). The half-inhibition concention (GI50) of the benzenesulfonamide derivatives of the present invention was obtained from the detected optical density.

For test [6], the system named is Human prostate carcinoma PC-3 cells. Briefly: SRB assay. It is filed as cell-based. Here is the method: as §2, §3
Test [7] has as its system Human gastric adenocarcinoma AGS cells. Briefly: SRB assay. The conditions noted are these: 48 hr. It is filed as cell-based.
In another test the test system is tumor cells. Briefly: Preliminary cytotoxicity assays (MTT, SRB), tumor cell panel. The following applies: comparison over Tables 1-4. It is filed as cell-based. The method, then: as §2
All cell lines were maintained in RPMI 1640 supplied with 10% fetal bovine serum and maintained in a humidified chamber at 37° C. containing 5% CO2. Then, all cell lines were treated with compounds for 72 hr and subsequently incubated with 0.4 mg/mL of MTT at 37° C. for 2 hr. The medium was removed, and DMSO was added to dissolve MTT precipitate. Cell proliferation was determined by measuring the optical density at 540 nm using a Thermomax microplate reader (Molecular Devices, Sunnyvale, Calif.), and the IC50 values of the benzenesulfonamide derivatives of the present invention were calculated.
as §3, with “After rinsing the plates with PBS and air-drying, 0.4% sulforhodamine B solution (weight per volume in 1% acetic acid) was added to each well and the plates were incubated for 10 min at room temperature. Unbound sulforhodamine B was removed with 1% acetic acid and the plates were air-dried. Cells bound with sulforhodamine B was subsequently solubilized with 10 mM Tris base (Trizma; Sigma).” left out

Test [8] concerns 4T1-Luc cells. The test is described as follows: In vivo evaluation, long-time treatment, mice implanted with 4T1-Luc cells. The method, then:
GM119 (25 mg/kg) and Taxol (10 mg/kg) were simultaneously applied to a mouse implanted with 4T1-Luc cells for a long time to observe the effect of GM119 on the 4T1-Luc cells.
as §1, with “Then, 0/0, 0/25, 10/[…],” for “Then, 0”, “or 10/0” for “or 25”, “of Taxol/GM119” for “of GM119”, “mice every two days until death of the mice,” for “mice for 5 days,”, “GM119 and Taxol were” for “GM119 was”, “μl.” for “μl. Then, 0 or 10 mg/kg of Taxol was abdominal-injected into the mice for every 2 days until death of the mice.”

Entries after “also recorded” stand apart in the source; their conditions may differ.

In the case of `COc1ccc(S(=O)(=O)Nc2cccc3c2[nH]c2c(C)ccc(C)c23)cc1` [Compound 6c, N-(5,8-Dimethyl-9H-carbazol-1-yl)-4-methoxybenzenesulfonamide], the “growth of the 4T1 cells” value in test [1] (0.01 μM, 48 hr, medium with or without serum, FIG. 1) was “the growth of the 4T1 cells can be inhibited”. Also, the “inhibition of the 4T1 cells” value in [1] (10 μM, 48 hr, FIG. 1) is on record as “the inhibition of the 4T1 cells is apparent”. Moreover, the “killing of 4T1 cells (FIG. 1 legend)” value in test [1] (in vitro assay) is recorded as “kills the murine mammary carcinoma 4T1 cell”. For the same compound, the half-maximal inhibitory concentration (IC50) in test [2] was over 10000 nM; in test [6] (Homo sapiens, PC-3, 48 hr) it was 1100 nM; in [7], 1000 nM. Also, the “inhibition activity compared with suramin” value in test [3] (10 μM GM119 vs 10 μM suramin) is listed as “almost equivalent to that of suramin”. Further, the “inhibition of formation of tube-like structures induced by VEGF” value in test [3] (VEGF 25 ng/mL, GM119 0.1, 1 or 10 μM, day 11) is “can inhibit the formation of the tube-like structures”. The “survival of the mice” value with 4T1-Luc cells [4] (short time: GM119 25 mg/kg abdominal-injected for 5 days, then Taxol 10 mg/kg every 2 days, FIG. 2) was “the survival of the mice can be greatly increased”; in the test on 4T1-Luc cells [8] (long time: Taxol 10 mg/kg and/or GM119 25 mg/kg abdominal-injected every two days until death, FIG. 3), “the survival time of the mice is the longest”. Besides, the “growth of the tumor cells (bioluminescence)” value in the test with 4T1-Luc cells [4] (short-time treatment, GM119 25 mg/kg, Taxol 10 mg/kg) was “the growth of the tumor cells can be inhibited”; in the test with 4T1-Luc cells [8] (long-time treatment) it was “the growth of the tumor cells can be inhibited”. For the same compound, the GI50 in test [5] was found to be 70 nM; in test [6] (48 hr) it was 610 nM; in [6] (Homo sapiens, PC-3, 48 h), 500 nM. Moreover, the “inhibitory activity against the tumor cells (in words)” value with tumor cells is on record as “has the best inhibition activity; also recorded: has the highest inhibitory activity”.
